Results published in patent publication US20180098997A1, “PHARMACEUTICAL DOSES FOR A BROMODOMAIN AND EXTRATERMINAL PROTEIN (BET) INHIBITOR” (Oncoethix GmbH, priority 2015, published 2018).
Like-named read-outs stand apart in the source and are kept apart here.

Key:
[1] = Phase I dose escalation population pharmacokinetics in patients with hematologic malignancies (plasma UPLC-MS/MS, Monolix PPK model); type: in vivo, human; details: for CL [mean +/- SD] / V [mean +/- SD]: apparent (F set to 1); for Cmin [mean +/- SD]: predose at Day 8; for AUC(0-t): read-out: AUC0-24 hr [mean +/- SD]; for Cmax: read-out: Cmax [mean +/- SD]
Protocol: Solid dispersions were prepared using the compound of Formula (1) and hydroxylpropylmethylcellulose acetate succinate (HPMCAS) at both 25% and 50% of compound loading. Solid dispersions were prepared by a solvent evaporation method, using spray-drying followed by secondary drying in a low-temperature convection oven. Dispersions containing 10 mg, 20 mg, 40 mg, 80 mg, 120 mg and 160 mg, of the compound, were prepared into capsules and administered to patients Pharmacokinetics (PK) of the compound of Formula (1) as single agent were characterized in patients with hematologic malignancies, including a population pharmacokinetic modeling. A multicenter, dose escalation study in cohorts of 3 to 6 patients with acute leukemia or other hematologic malignancies was performed with a dose escalation step followed by expansion cohorts at the recommended dose. Patients received oral compound of Formula (1) from 10 to 160 mg according to different schedules. Schedules included once a day dosing with 21-day cycles, acute leukemia (AL); 14 days on/7 days off, hematologic malignancies (OHM). Continuous PK blood samples from 7 time points over 24 hours post-administration were collected on day 1 of cycle 1 for the first 3 patients per DL, and 5 time points over 8 hours post-administration for other patients at this DL. Residual sampling before administration on days 8, 15 and 22 was performed in all patients. Compound plasma concentrations were measured using validated ultra-performance liquid chromatography with tandem mass spectrometry detection with a concentration range 1-250 ng/mL, with a small plasma volume for analysis (50 μL). Analyses and population PK (PPK) modeling were performed with the nonlinear mixed effect modeling software program Monolix version 4.3. The following parameters were calculated: absorption constant (Ka); apparent distribution volume (V/F); apparent clearance (CL/F) and lean body mass (LBM; calculated considering patient sex, weight and height). Parameters were estimated by computing the maximum likelihood estimator without linearization using the stochastic approximation expectation maximization (SAEM) algorithm combined with a Markov Chain Monte Carlo (MCMC) procedure. The number of MCMC chains was fixed at 10 for all estimations. A constant error model was used to describe residual and Between-Subject Variability (BSV, η) were ascribed to an exponential model. In the absence of intravenous data, the initial bioavailability (F) was set to 1, meaning that clearance (CL) and volume of distribution (V) should be interpreted as the apparent clearance (CL/F) and apparent volume of distribution (V/F), respectively. Eighty-five patients enrolled and treated and randomized to six dose levels (10, 20, 40, 80, 120 and 160 mg) once-a-day and 40 mg twice-a-day. Among them, 81 patients with 630 plasma concentrations (607+23 BLQ) were evaluable for PK assessment. A 1-compartment open model adequately described the total compound concentration-time curve. […] The absorption phase was linear and Tmax was between 1 and 4 h. […] In the PPK study, the best descriptive model was obtained when LBM was considered in the analysis. A correlation between CL/F and V/F was also observed for compound. A total of 81 patients (52 male, 29 female) were evaluable for PK (40 AL patients, 41 OHM patients), with a total of […] available for analysis.

[2] = Dose limiting toxicity in patients with acute leukemia or hematologic malignancies; type: in vivo, human
From the text: Dose-limiting toxicity corresponds to side-effect toxicity such that the side-effects are severe enough to impose restrictions on, or to prevent administration of, the dose. Clinically significant toxicity includes but is not limited to intolerable levels in a patient of thrombocytopenia, neutropenia, fatigue, diarrhea, anemia, mucositis, and other side effects known to be associated with elevated levels of bromodomain and extraterminal protein inhibitors.
(§1) Doses of the compound of Formula (1) were administered to patients having leukemia, hematologic malignancies, diffuse large B-cell lymphoma, other lymphomas or multiple myeloma, and dose limiting toxicity and objective responses were observed.
Compound of Formula (1) dose-limiting toxicity was evaluated in patients with acute leukemia and hematologic malignancies.

[3] = tested on: leukemia, diffuse large B-cell lymphoma, other lymphomas or multiple myeloma; experiment: Objective responses in patients; type: in vivo, human; details: patients receiving 10 or 20 mg per day
From the text: With regard to the compound of Formula (1), an effective dose is a dose that inhibits a protein in the bromodomain and extraterminal protein family to a sufficient degree that a desired objective response is observed. An objective response may be a complete response (all detectable tumor or blast cell has disappeared), a partial response (roughly corresponds to at least a 50% decrease in the total tumor volume or blast cell amount but with evidence of some residual disease still remaining), or a minor response (roughly means a small amount of tumor shrinkage or blast cell reduction). Thus, an objective response can include a response where blast cell amount reduction is observed, or where tumor shrinkage is observed in the patient.
as §1
Compound of Formula (1) once-a-day doses of 10, 20, 40, 80, 120 and 160 mg and twice-a-day doses of 40 mg were administered to patients with leukemia, diffuse large B-cell lymphoma, other lymphomas or multiple myeloma. In this study, objective responses were not observed in patients receiving 10 or 20 mg per day.

[4] = tested on: BET (bromodomains and extraterminal) proteins, which include BRD2, BRD3, and BRD4; details: U.S. 2010/0286127 A1; cited from earlier work
[5] = 10 mg QD oral, n = 8, derived from EBE
[6] = 20 mg QD oral, n = 6, derived from EBE
[7] = 40 mg BID oral, n = 13, derived from EBE
[8] = 40 mg QD oral, n = 8, derived from EBE
[9] = 80 mg QD oral, n = 11, derived from EBE
[10] = 120 mg QD oral, n = 30, derived from EBE
[11] = 160 mg QD oral, n = 5, derived from EBE
[12] = PPK structural model, 1-compartment open model, 81 patients, all dose levels

CL [mean +/- SD] [1, 5]: 8.53 L/h
V [mean +/- SD] [1, 5]: 72.1 L
Cmin [mean +/- SD] ([1]; 10 mg QD oral, n = 8, observed values): 22.5 ng/mL
CL [mean +/- SD] [1, 6]: 7.06 L/h
V [mean +/- SD] [1, 6]: 57.6 L
Cmin [mean +/- SD] ([1]; 20 mg QD oral, n = 6, observed values): 50.5 ng/mL
CL [mean +/- SD] [1, 7]: 6.57 L/h
V [mean +/- SD] [1, 7]: 57.46 L
Cmin [mean +/- SD] ([1]; 40 mg BID oral, n = 13, observed values): 351.16 ng/mL
CL [mean +/- SD] [1, 8]: 7.66 L/h
V [mean +/- SD] [1, 8]: 58.65 L
Cmin [mean +/- SD] ([1]; 40 mg QD oral, n = 8, observed values): 47.7 ng/mL
CL [mean +/- SD] [1, 9]: 7.83 L/h
V [mean +/- SD] [1, 9]: 71.14 L
Cmin [mean +/- SD] ([1]; 80 mg QD oral, n = 11, observed values): 113.7 ng/mL
CL [mean +/- SD] [1, 10]: 7.81 L/h
V [mean +/- SD] [1, 10]: 63.32 L
Cmin [mean +/- SD] ([1]; 120 mg QD oral, n = 30, observed values): 325.4 ng/mL
CL [mean +/- SD] [1, 11]: 12.10 L/h
V [mean +/- SD] [1, 11]: 96.66 L
Cmin [mean +/- SD] ([1]; 160 mg QD oral, n = 5, observed values): 215.0 ng/mL
absorption constant (Ka) [1, 12]: 0.74 h⁻¹
apparent clearance (CL/F) [1, 12]: 8.45 L/h
apparent distribution volume (V/F) [1, 12]: 71.7 L
half-life ([1]; both sexes, human, plasma, oral, all patients, read-out: Mean elimination half-life (converted)): 5.8 h
AUC(0-t) ([1]; both sexes, human, plasma, po, 10 mg, 10 mg QD oral, n = 8, derived from EBE): 1190 ng·h/mL
AUC(0-t) ([1]; both sexes, human, plasma, po, 20 mg, 20 mg QD oral, n = 6, derived from EBE): 2930 ng·h/mL
AUC(0-t) ([1]; both sexes, human, plasma, po, 40 mg, 40 mg BID oral, n = 13, values doubled to mimic 80 mg (2 × 40 mg)): 13100 ng·h/mL
AUC(0-t) ([1]; both sexes, human, plasma, po, 40 mg, 40 mg QD oral, n = 8, derived from EBE): 5500 ng·h/mL
AUC(0-t) ([1]; both sexes, human, plasma, po, 80 mg, 80 mg QD oral, n = 11, derived from EBE): 12500 ng·h/mL
AUC(0-t) ([1]; both sexes, human, plasma, po, 120 mg, 120 mg QD oral, n = 30, derived from EBE): 17200 ng·h/mL
AUC(0-t) ([1]; both sexes, human, plasma, po, 160 mg, 160 mg QD oral, n = 5, derived from EBE): 13900 ng·h/mL
Cmax ([1]; both sexes, human, plasma, 40 mg BID oral, n = 13, derived from EBE): 550 ng/mL
Cmax ([1]; both sexes, human, plasma, 80 mg QD oral, n = 11, derived from EBE): 1150 ng/mL
Cmax ([1]; both sexes, human, plasma, 120 mg QD oral, n = 30, derived from EBE): 1470 ng/mL
Cmax ([1]; both sexes, human, plasma, 160 mg QD oral, n = 5, derived from EBE): 1290 ng/mL
Tmax ([1]; both sexes, human, plasma, oral, all dose levels): 1 to 4 h
half-life ([1]; human, plasma, po, 10 mg, 10 mg QD oral, n = 8, derived from EBE, read-out: T1/2 [mean +/- SD] (converted)): 5.84 h
half-life ([1]; human, plasma, po, 20 mg, 20 mg QD oral, n = 6, derived from EBE, read-out: T1/2 [mean +/- SD] (converted)): 5.63 h
half-life ([1]; human, plasma, po, 40 mg, 40 mg BID oral, n = 13, derived from EBE, read-out: T1/2 [mean +/- SD] (converted)): 6.22 h
half-life ([1]; human, plasma, po, 40 mg, 40 mg QD oral, n = 8, derived from EBE, read-out: T1/2 [mean +/- SD] (converted)): 5.33 h
half-life ([1]; human, plasma, po, 80 mg, 80 mg QD oral, n = 11, derived from EBE, read-out: T1/2 [mean +/- SD] (converted)): 5.51 h
half-life ([1]; human, plasma, po, 120 mg, 120 mg QD oral, n = 30, derived from EBE, read-out: T1/2 [mean +/- SD] (converted)): 5.91 h
half-life ([1]; human, plasma, po, 160 mg, 160 mg QD oral, n = 5, derived from EBE, read-out: T1/2 [mean +/- SD] (converted)): 5.48 h
Cmax ([1]; human, plasma, 10 mg QD oral, n = 8, derived from EBE): 131 ng/mL
Cmax ([1]; human, plasma, 20 mg QD oral, n = 6, derived from EBE): 275 ng/mL
Cmax ([1]; human, plasma, 40 mg QD oral, n = 8, derived from EBE): 627 ng/mL
Structure (SMILES): Cc1sc2c(c1C)C(c1ccc(Cl)cc1)=N[C@@H](CC(=O)Nc1ccc(O)cc1)c1nnc(C)n1-2 [Compound of Formula (1), (S)-2-(4-(4-chlorophenyl)-2,3,9-trimethyl-6H-thieno[3,2-f][1,2,4]triazolo[4,3-a][1,4]diazepin-6-yl)-N-(4-hydroxyphenyl)acetamide]
Dose Limiting Toxicity, observed toxicity ([2]; Acute Leukemia, 20 mg QD, 6 patients): 0 patients
Dose Limiting Toxicity, observed toxicity ([2]; Acute Leukemia, 40 mg BID, 6 patients): 0 patients
Dose Limiting Toxicity, observed toxicity ([2]; Acute Leukemia, 40 mg QD, 4 patients): 0 patients
Dose Limiting Toxicity, observed toxicity ([2]; Acute Leukemia, 80 mg QD, 4 patients): 0 patients
Dose Limiting Toxicity, observed toxicity ([2]; Acute Leukemia, 120 mg QD, 11 patients): 0 patients
Dose Limiting Toxicity, observed toxicity ([2]; Acute Leukemia, 160 mg QD, 5 patients (diarrhea and fatigue/anorexia)): 2 patients
Dose Limiting Toxicity, observed toxicity ([2]; Older Adult Hematologic Malignancies, 20 mg QD, 6 patients): 0 patients
Dose Limiting Toxicity, observed toxicity ([2]; Older Adult Hematologic Malignancies, 40 mg BID, 6 patients (thrombocytopenia)): 5 patients
Dose Limiting Toxicity, observed toxicity ([2]; Older Adult Hematologic Malignancies, 40 mg QD, 3 patients): 0 patients
Dose Limiting Toxicity, observed toxicity ([2]; Older Adult Hematologic Malignancies, 80 mg QD, 7 patients (thrombocytopenia)): 2 patients
Dose Limiting Toxicity, observed toxicity ([2]; Older Adult Hematologic Malignancies, 120 mg QD, 18 patients (thrombocytopenia, hypo Na, neutropenia, fatigue, diarrhea, mucositis)): 10 patients
objective responses [3]: not observed
inhibition of binding of acetylated histone H4 to BET proteins [4]: inhibit the binding
